Columns and labels:
HepG2 cells [1] = assay: In vitro cytotoxic activity, MTT assay; type: cell-based, human; details: 24 h treatment, read-out: IC50, compound concentration required to inhibit cell growth by 50%
Protocol: The obtained 1,8-naphthalimide–carborane conjugates were investigated for their in vitro antitumor activity by examining their cytotoxic effects using the MTT tetrazolium dye assay against the human cancer cell line HepG2 established from hepatocellular carcinoma. IC50 refers to the drug concentration (µM) required to inhibit cell growth by 50%.
The cytotoxic properties of the synthesized compounds were evaluated using the human hepatocellular carcinoma cell line HepG2 established from hepatocellular carcinoma. The HepG2 cell line was purchased from ECACC (Salisbury, UK). Cells were grown in EMEM medium (Corning®) supplemented with 10% heat-inactivated fetal bovine serum (FBS) (Corning®) and antibiotics (Corning®), at 37 °C in a 5% CO2 atmosphere. Upon reaching 80–90% confluency, cells were detached with the trypsin (Corning®) and transferred into 96-well microplates at a density of 12 × 10^3. After overnight incubation at 37 °C in a humidified atmosphere containing 5% CO2, the cells were treated for the next 24 h with compounds. The stock solution of each compound was prepared in DMSO at 10 mM. The cytotoxicity was evaluated by the MTT assay. […] Subsequently, the medium was aspirated and replaced with 3-(4,5-dimethylthiazol-2-yl)-2,5-diphenyltetrazolium bromide (MTT) dye solution (50 µL, 0.5 mg/mL). After 3 h incubation, the resulting MTT formazan crystals were dissolved in DMSO (100 µL). To ensure the complete dissolution of formazan, the plates were shaken on an orbital microplate shaker at 1000 rpm for 15 min (Thermoshaker NeoLab 7–0055, Bionovo, Legnica, Poland). The optical density of each well was then measured on a VICTOR Nivo multimode plate reader at a wavelength of 570 nm. Each experiment consisted of 6 replications of each concentration, and each experiment was repeated three times independently. The results were calculated as a percentage of control group viability. The IC50 values were determined using a non-linear regression from the plot of % viability against log dose of compounds by using GraphPad Prism 6.0 software (GraphPad, San Diego, CA, USA).

HepG2 cells [2] = assay: Cell migration inhibition assay (xCELLigence, CIM plates); type: cell-based, human; details: 24 h pre-incubation at one-fourth of IC50
Protocol: By using the xCELLigence platform, we evaluated migration potential of HepG2 cells after the administration of compounds. We incubated the cells with compounds 54–61 at the concentration corresponding to one-fourth of the IC50 value for 24 h before the analysis, and the cells were then seeded on a CIM plate. Impedance-based cell index (CI) of HepG2 cells was measured every 30 min for 72 h. […] The most significant changes were observed within the first 24 h (Figure 3A). Thus, to obtain more insight into the altered migration profile caused by the analyzed compounds, we additionally calculated the slope representing the rate of change of the cell index within the first 24 h.
Transwell cell migration experiments were performed using xCELLigence RTCA Analyzer (Roche) in Cell Invasion and Migration (CIM) plates (ACEA Biosciences, San Diego, CA, USA). Each well consisted of an upper and a lower chamber separated by a microporous polyethylene terephthalate (PET) membrane containing randomly distributed 8 μm-pores. Prior to the migration assay, HepG2 cells (15 × 10^3) were seeded onto 48-well plates containing the growth medium (EMEM) and incubated until 70–80% confluency and incubated at 37 °C in a humidified atmosphere containing 5% CO2. Subsequently, the cells were treated for 24 h with the tested compounds at the final concentration corresponding to the one-fourth of IC50 value. Next, 160 μL of complete growth medium (supplemented with 10% FBS) was added to the lower chamber and 50 μL of serum-free growth medium to the upper chambers of CIM plate. The plates were incubated at 37 °C and 5% CO2 saturation for 1 h prior to insertion into the xCELLigence platform. To initiate a transwell migration experiment, cells were detached, resuspended in the serum-free growth medium, and seeded in the upper chamber at a density of 1 × 10^4 cells in 100 μL per well, previously treated with the compounds. The impedance of the microelectrode array was monitored and converted to the cell index (CI). Normalization values were recorded using the RTCA Software 1.2.1. […]
Figure 3 Real-time migration potential of HepG2 cells after 24 h administration of compounds 54–61. The migration potential of the cells was monitored using the xCELLigence system. HepG2 cells were incubated with the analyzed compounds for 24 h before the analysis at the concentration corresponding to one-fourth of the IC50 value. The impedance (cell index values) was measured every 30 min for the next 72 h. To eliminate the influence of the solvent, DMSO was added to the cells in a volume that corresponded to the highest compound concentration (A). The slope parameter represents the rate of changes in CI values of HepG2 cells within the first 24 h (B). […]

calf thymus DNA (ct-DNA) = assay: Melting temperature (Tm) measurements of ct-DNA, thermal denaturation; type: binding; details: r = [compound]/[ct-DNA] = 0.3; pH 7.0, 20 mM cacodylate buffer; Tm of ct-DNA alone 74 °C
Protocol: The melting temperature (Tm) of DNA is defined as the temperature at which 50% of the DNA is in form of single strands forming randomly coiled structures. DNA melting is measured by the absorbance of UV light (260 nm) by the DNA solution, where the amount of UV light absorbed is proportional to the fraction of non-bonded base pairs. The majority of DNA-binding small molecules known thus far stabilize duplex DNA against heat denaturation. A high, drug-induced increase in the Tm of DNA is generally viewed as an excellent criterion to select DNA ligands and is a common feature of several anticancer drugs such as intercalators (a significant increase in Tm = 3–8 °C is observed for strong intercalation) and alkylators. The reverse situation (destabilization of DNA to facilitate its denaturation) may be an attractive option to identify therapeutic agents acting on the DNA structure.
Our study conducted Tm measurement to estimate the impact of 1,8-naphthalimides bearing the carborane cluster on DNA stabilization (Table 1, Figures S249–S253, ESI).
The measurements were performed by adding aliquots of DMSO stock solution of the tested compounds to the buffer solution (pH 7.0, 20 mM, cacodylate buffer, DMSO content of the final solution = 0.24–0.36%). The Tm curves were collected at r = 0.3 (r = [compound]/[ct-DNA]) to assure the dominant binding mode. Thermal melting curves were determined by following the absorption change at 260 nm as a function of temperature by using a GBC Cintra10 UV–vis spectrometer (Dandenong, Australia) equipped with a GBC Thermocell Peltier Power Supply (Dandenong, Australia) using a 1 cm path length cell. The absorbance of the samples was monitored at 260 nm from 30 to 90 °C (95 °C for compounds 54–61) with a heating rate of 1 °C/min. Tm values are the midpoints or the transition curves determined from the maximum of the first derivative. The ΔTm values were calculated by subtracting the Tm of the free nucleic acid from the Tm of the sample. Every Tm value reported in this study was average at least three measurements. The error in Tm was 0.5 °C.

With “N-[2-N-Pyrrolidinyl)ethyl]-4-[(6-(2-(1,7-dicarba-closo-dodecaborane-1-yl)-ethylamino)hexyl)amino]-1,8-naphthalimide [Compound 61]” the IC50 (HepG2 cells [1]) was 4.79 ± 0.06 µM, the “effect on migration potential of HepG2 cells (cell index, slope in first 24 h)” value (shortened to “effect … (cell index, slope in first 24 h)”) (HepG2 cells [2]) was “highest impairment” and the “ΔTm ct-DNA” value (calf thymus DNA (ct-DNA)) was 12.33 °C.
With “N-[2-(Dimethylamino)ethyl]-4-[(2-(2-(1,7-dicarba-closo-dodecaborane-1-yl)-ethylamino)ethyl)amino]-1,8-naphthalimide [Compound 55]” the IC50 (HepG2 cells [1]) was 3.43 ± 0.28 µM and the “ΔTm ct-DNA” value (calf thymus DNA (ct-DNA)) was 9.67 °C.
“N-[2-(Dimethylamino)ethyl]-4-[(6-(2-(1,7-dicarba-closo-dodecaborane-1-yl)-ethylamino)hexyl)amino]-1,8-naphthalimide [Compound 59]” was tested, and the IC50 (HepG2 cells [1]) was 5.35 ± 1.36 µM and the “ΔTm ct-DNA” value (calf thymus DNA (ct-DNA)) was 8.33 °C.
In the case of “N-[2-(Pyrrolidin-1-yl)ethyl]-4-[(2-(2-(1,7-dicarba-closo-dodecaborane-1-yl)-ethylamino)ethyl)amino]-1,8-naphthalimide [Compound 57]”, the IC50 (HepG2 cells [1]) is reported as 3.12 ± 0.04 µM, the “effect … (cell index, slope in first 24 h)” value (HepG2 cells [2]) is reported as “influenced the migratory activity most” and the “ΔTm ct-DNA” value (calf thymus DNA (ct-DNA)) is reported as 11.00 °C.
“N-[2-(Dimethylamino)ethyl]-4-[(6-(2-(1,2-dicarba-closo-dodecaborane-1-yl)-ethylamino)hexyl)amino]-1,8-naphthalimide [Compound 58]” was tested, and the IC50 (HepG2 cells [1]) was 3.87 ± 1.03 µM and the “ΔTm ct-DNA” value (calf thymus DNA (ct-DNA)) was 11.00 °C.
In the case of “N-[2-(Pyrrolidin-1-yl)ethyl]-4-[(2-(2-(1,2-dicarba-closo-dodecaborane-1-yl)-ethylamino)ethyl)amino]-1,8-naphthalimide [Compound 56]”, the IC50 (HepG2 cells [1]) is reported as 12.1 ± 1.03 µM, the “effect … (cell index, slope in first 24 h)” value (HepG2 cells [2]) is reported as “influenced the migratory activity most” and the “ΔTm ct-DNA” value (calf thymus DNA (ct-DNA)) is reported as 7.67 °C.
For “N-[2-N-Pyrrolidinyl)ethyl]-4-[(6-(2-(1,2-dicarba-closo-dodecaborane-1-yl)-ethylamino)hexyl)amino]-1,8-naphthalimide [Compound 60]”, the IC50 (HepG2 cells [1]) was 30.9 ± 2.66 µM, the “effect … (cell index, slope in first 24 h)” value (HepG2 cells [2]) was “influenced the migratory activity most” and the “ΔTm ct-DNA” value (calf thymus DNA (ct-DNA)) was 7.67 °C.
“N-[2-(Dimethylamino)ethyl]-4-[(2-(2-(1,2-dicarba-closo-dodecaborane-1-yl)-ethylamino)ethyl)amino]-1,8-naphthalimide [Compound 54]” was tested, and the IC50 (HepG2 cells [1]) was 5.49 ± 0.38 µM and the “ΔTm ct-DNA” value (calf thymus DNA (ct-DNA)) was 7.67 °C.

Source: paper PMC9101373, “Design of DNA Intercalators Based on 4-Carboranyl-1,8-Naphthalimides: Investigation of Their DNA-Binding Ability and Anticancer Activity” (International Journal of Molecular Sciences, 2022)
